In the supplement of paper PMC8612539:

Test system: Histophilus somni
Assay: minimum inhibitory concentration (MIC)
Experimental: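 Broth microdilution MIC (Sensititre BOPO7F bovine plate, CLSI methods) of 19 antimicrobials against field isolates of P. multocida, M. haemolytica, H. somni (deep nasopharyngeal swabs) and E. coli, Enterococcus spp. (rectal swabs) from weaned dairy heifers. Incubation 16-24 h at 35 C. MIC is the lowest concentration preventing visible growth. Values with <= or > lie at the tested range limits. Trimethoprim-sulfamethoxazole is given as the trimethoprim component of a 1:19 mixture.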

[1] = isolate (source animal id): 100
[2] = isolate (source animal id): 105
[3] = isolate (source animal id): 107
[4] = isolate (source animal id): 108
[5] = isolate (source animal id): 109
[6] = isolate (source animal id): 110
[7] = isolate (source animal id): 117
[8] = isolate (source animal id): 121
[9] = isolate (source animal id): 123
[10] = isolate (source animal id): 124
[11] = isolate (source animal id): 127
[12] = isolate (source animal id): 128
[13] = isolate (source animal id): 130
[14] = isolate (source animal id): 132
[15] = isolate (source animal id): 135
[16] = isolate (source animal id): 140
[17] = isolate (source animal id): 141
[18] = isolate (source animal id): 142
[19] = isolate (source animal id): 144
[20] = isolate (source animal id): 146
[21] = isolate (source animal id): 147
[22] = isolate (source animal id): 151
[23] = isolate (source animal id): 153
[24] = isolate (source animal id): 154
[25] = isolate (source animal id): 156
[26] = isolate (source animal id): 157
[27] = isolate (source animal id): 176
[28] = isolate (source animal id): 183
[29] = isolate (source animal id): 186
[30] = isolate (source animal id): 196
[31] = isolate (source animal id): 198
[32] = isolate (source animal id): 200
[33] = isolate (source animal id): 206
[34] = isolate (source animal id): 208
[35] = isolate (source animal id): 210
[36] = isolate (source animal id): 212
[37] = isolate (source animal id): 215
[38] = isolate (source animal id): 216
[39] = isolate (source animal id): 218
[40] = isolate (source animal id): 219
[41] = isolate (source animal id): 224
[42] = isolate (source animal id): 228
[43] = isolate (source animal id): 230
[44] = isolate (source animal id): 233
[45] = isolate (source animal id): 238
[46] = isolate (source animal id): 239
[47] = isolate (source animal id): 241
[48] = isolate (source animal id): 242
[49] = isolate (source animal id): 243
[50] = isolate (source animal id): 245
[51] = isolate (source animal id): 246
[52] = isolate (source animal id): 247
[53] = isolate (source animal id): 248
[54] = isolate (source animal id): 250
[55] = isolate (source animal id): 251
[56] = isolate (source animal id): 252
[57] = isolate (source animal id): 254
[58] = isolate (source animal id): 258
[59] = isolate (source animal id): 259
[60] = isolate (source animal id): 262
[61] = isolate (source animal id): 264
[62] = isolate (source animal id): 265
[63] = isolate (source animal id): 266
[64] = isolate (source animal id): 267
[65] = isolate (source animal id): 269
[66] = isolate (source animal id): 271
[67] = isolate (source animal id): 272
[68] = isolate (source animal id): 274
[69] = isolate (source animal id): 276
[70] = isolate (source animal id): 278
[71] = isolate (source animal id): 280
[72] = isolate (source animal id): 281
[73] = isolate (source animal id): 283
[74] = isolate (source animal id): 288
[75] = isolate (source animal id): 291
[76] = isolate (source animal id): 292
[77] = isolate (source animal id): 296
[78] = isolate (source animal id): 306
[79] = isolate (source animal id): 336
[80] = isolate (source animal id): 337
[81] = isolate (source animal id): 341

Measured: minimum inhibitory concentration

CN1C[C@@H]2C[C@H]1CN2c1cc2c(cc1F)c(=O)c(C(=O)O)cn2C1CC1 [Danofloxacin]
≤ 0.12 µg/mL: isolate (source animal id): 3 | isolate (source animal id): 4 | isolate (source animal id): 7 | isolate (source animal id): 14 | isolate (source animal id): 15 | isolate (source animal id): 17 | isolate (source animal id): 18 | isolate (source animal id): 20 | isolate (source animal id): 23 | isolate (source animal id): 45 | isolate (source animal id): 53 | isolate (source animal id): 83 | isolate (source animal id): 88 | isolate (source animal id): 92 | isolate (source animal id): 93 | isolate (source animal id): 99 | [1] | [2] | [3] | [4] | [5] | [6] | [7] | [8] | [9] | [10] | [11] | [12] | [13] | [14] | [15] | [16] | [17] | [18] | [19] | [20] | [21] | [22] | [23] | [24] | [25] | [26] | [27] | [28] | [29] | [30] | [31] | [32] | [33] | [34] | [35] | [36] | [37] | [38] | [39] | [40] | [41] | [42] | [43] | [44] | [45] | [46] | [47] | [48] | [49] | [50] | [51] | [52] | [53] | [54] | [55] | [56] | [57] | [58] | [59] | [60] | [61] | [62] | [63] | [64] | [65] | [66] | [67] | [68] | [69] | [70] | [71] | [72] | [73] | [74] | [75] | [76] | [77] | [78] | [79] | [80] | [81]

CO/N=C(\C(=O)N[C@@H]1C(=O)N2C(C(=O)O)=C(CSC(=O)c3ccco3)CS[C@H]12)c1csc(N)n1 [Ceftiofur]
≤ 0.25 µg/mL: isolate (source animal id): 3 | isolate (source animal id): 4 | isolate (source animal id): 7 | isolate (source animal id): 14 | isolate (source animal id): 15 | isolate (source animal id): 17 | isolate (source animal id): 18 | isolate (source animal id): 20 | isolate (source animal id): 23 | isolate (source animal id): 45 | isolate (source animal id): 53 | isolate (source animal id): 83 | isolate (source animal id): 88 | isolate (source animal id): 92 | isolate (source animal id): 93 | isolate (source animal id): 99 | [1] | [2] | [3] | [4] | [5] | [6] | [7] | [8] | [9] | [10] | [11] | [12] | [13] | [14] | [15] | [16] | [17] | [18] | [19] | [20] | [21] | [22] | [23] | [24] | [25] | [26] | [27] | [28] | [29] | [30] | [31] | [32] | [33] | [34] | [35] | [36] | [37] | [38] | [39] | [40] | [41] | [42] | [43] | [44] | [45] | [46] | [47] | [48] | [49] | [50] | [51] | [52] | [53] | [54] | [55] | [56] | [57] | [58] | [59] | [60] | [61] | [62] | [63] | [64] | [65] | [66] | [67] | [68] | [69] | [70] | [71] | [72] | [73] | [74] | [75] | [76] | [77] | [78] | [79] | [80] | [81]
